Experimental data reported in patent US11325938B2, “CD73 inhibitors” (ORIC Pharmaceuticals, Inc., priority 2018, dated 2022).

target: CD73 (Homo sapiens (Human), UniProt P21589); assay: Biochemical assay: inhibition of CD73 activity (AMP hydrolysis, Malachite Green readout); conditions: CD73 0.3208 nM, AMP 15 μM, 25 mM Tris-HCl pH 7.4, RT, absorbance 620 nm
Summary of the method: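 Human CD73 (320 pM final) preincubated 15 min at RT with compounds (10-point ½-log titration from 100 μM, duplicates) in 25 mM Tris-HCl pH 7.4, 5 mM MgCl2, 0.01% Brij-35, 0.01% BSA. 15 μM AMP added, 10 min at RT; released phosphate read by Malachite Green absorbance; IC50 determined.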

Sequence of CD73 (P21589 27-574): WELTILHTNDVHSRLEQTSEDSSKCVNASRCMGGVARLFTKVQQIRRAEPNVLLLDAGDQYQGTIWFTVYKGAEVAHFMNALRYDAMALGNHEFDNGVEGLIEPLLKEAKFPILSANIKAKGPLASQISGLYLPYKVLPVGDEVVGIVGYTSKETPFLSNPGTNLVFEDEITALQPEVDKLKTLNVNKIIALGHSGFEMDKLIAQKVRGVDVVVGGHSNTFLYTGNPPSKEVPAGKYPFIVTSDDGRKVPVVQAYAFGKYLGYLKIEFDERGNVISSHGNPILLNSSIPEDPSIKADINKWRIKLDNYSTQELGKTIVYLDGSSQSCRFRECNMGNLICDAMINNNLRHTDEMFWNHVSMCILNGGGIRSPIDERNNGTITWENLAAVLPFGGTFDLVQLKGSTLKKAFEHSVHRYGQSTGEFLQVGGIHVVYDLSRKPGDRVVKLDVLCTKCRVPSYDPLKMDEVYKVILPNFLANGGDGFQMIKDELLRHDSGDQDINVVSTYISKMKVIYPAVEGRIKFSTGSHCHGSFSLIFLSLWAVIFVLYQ

IC50	SMILES
≤ 100 nM	O=P(O)(O)C(CO)(CO)OC[C@H]1O[C@@H](n2ncc3c(N[C@@H]4CCc5ccccc54)nc(Cl)nc32)[C@H](O)[C@@H]1O [Example 113, (2-(((2R,3S,4R,5R)-5-(6-chloro-4-(((R)-2,3-dihydro-1H-inden-1-yl)amino)-1H-pyrazolo[3,4-d]pyrimidin-1-yl)-3,4-dihydroxytetrahydrofuran-2-yl)methoxy)-1,3-dihydroxypropan-2-yl)phosphonic acid]
≤ 100 nM	O=P(O)(O)C(CO)(CO)OC[C@H]1O[C@@H](n2ncc3c(NCc4ccc(Cl)cc4)nc(Cl)nc32)[C@H](O)[C@@H]1O (racemic) [Example 201, rac-(2-(((2R,3S,4R,5R)-5-(6-chloro-4-((4-chlorobenzyl)amino)-1H-pyrazolo[3,4-d]pyrimidin-1-yl)-3,4-dihydroxytetrahydrofuran-2-yl)methoxy)-1,3-dihydroxypropan-2-yl)phosphonic acid]
≤ 100 nM	CC#CC[C@@](CO)(OC[C@H]1O[C@@H](n2ncc3c(NC4CCCC4)nc(Cl)nc32)[C@H](O)[C@@H]1O)P(=O)(O)O [Example 97, ((R)-2-(((2R,3S,4R,5R)-5-(6-chloro-4-(cyclopentylamino)-1H-pyrazolo[3,4-d]pyrimidin-1-yl)-3,4-dihydroxytetrahydrofuran-2-yl)methoxy)-1-hydroxyhex-4-yn-2-yl)phosphonic acid]
≤ 100 nM	C[C@](CO)(OC[C@H]1O[C@@H](n2ncc3c(NC4CCCC4)cc(Cl)nc32)[C@H](O)[C@@H]1O)P(=O)(O)O (racemic) [Example 193, rac-((R)-2-(((2S,3R,4S,5S)-5-(6-chloro-4-(cyclopentylamino)-1H-pyrazolo[3,4-b]pyridin-1-yl)-3,4-dihydroxytetrahydrofuran-2-yl)methoxy)-1-hydroxypropan-2-yl)phosphonic acid]
≤ 100 nM	C[C@H](OC[C@H]1O[C@@H](n2ncc3c(NC4CCCC4)nc(Cl)nc32)[C@H](O)[C@@H]1O)P(=O)(O)O [Example 33, ((R)-1-(((2R,3S,4R,5R)-5-(6-chloro-4-(cyclopentylamino)-1H-pyrazolo[3,4-d]pyrimidin-1-yl)-3,4-dihydroxytetrahydrofuran-2-yl)methoxy)ethyl)phosphonic acid]
≤ 100 nM	O=P(O)(O)COC[C@H]1O[C@@H](n2nnc3c(NCC4CCC4)cc(Cl)nc32)[C@H](O)[C@@H]1O [Example 24, ((((2R,3S,4R,5R)-5-(5-chloro-7-((cyclobutylmethyl)amino)-3H-[1,2,3]triazolo[4,5-b]pyridin-3-yl)-3,4-dihydroxytetrahydrofuran-2-yl)methoxy)methyl)phosphonic acid]
> 1000 nM	CC(CN1CCOCC1)(OC[C@H]1O[C@@H](n2ncc3c(NC4CCCC4)nc(Cl)nc32)[C@H](O)[C@@H]1O)P(=O)(O)O (stereo partly drawn) [Example 71, (2-(((2R,3S,4R,5R)-5-(6-chloro-4-(cyclopentylamino)-1H-pyrazolo[3,4-d]pyrimidin-1-yl)-3,4-dihydroxytetrahydrofuran-2-yl)methoxy)-1-morpholinopropan-2-yl)phosphonic acid]
≤ 100 nM	C[C@@](CO)(OC[C@H]1O[C@@H](n2ncc3c(NC4CCCC4)nc(C#CCO)nc32)[C@H](O)[C@@H]1O)P(=O)(O)O (racemic) [Example 205, rac-((R)-2-(((2R,3S,4R,5R)-5-(4-(cyclopentylamino)-6-(3-hydroxyprop-1-yn-1-yl)-1H-pyrazolo[3,4-d]pyrimidin-1-yl)-3,4-dihydroxytetrahydrofuran-2-yl)methoxy)-1-hydroxypropan-2-yl)phosphonic acid]
≤ 100 nM	C[C@@H](P(=O)(O)O)S(=O)(=O)C[C@H]1O[C@@H](n2ncc3c(NC4CCCC4)nc(Cl)nc32)[C@H](O)[C@@H]1O [Example 6, ((S)-1-((((2S,3S,4R,5R)-5-(6-Chloro-4-(cyclopentylamino)-1H-pyrazolo[3,4-d]pyrimidin-1-yl)-3,4-dihydroxytetrahydrofuran-2-yl)methyl)sulfonyl)ethyl)phosphonic acid]
≤ 100 nM	COC[C@](C)(OC[C@H]1O[C@@H](n2nnc3c(NC4CCCC4)nc(Cl)nc32)[C@H](O)[C@@H]1O)P(=O)(O)O [Example 110, ((R)-2-(((2R,3S,4R,5R)-5-(5-chloro-7-(cyclopentylamino)-3H-[1,2,3]triazolo[4,5-d]pyrimidin-3-yl)-3,4-dihydroxytetrahydrofuran-2-yl)methoxy)-1-methoxypropan-2-yl)phosphonic acid]
≤ 100 nM	O=P(O)(O)C(CO)(Cc1cc(O)no1)OC[C@H]1O[C@@H](n2ncc3c(NC4CCCC4)nc(Cl)nc32)[C@H](O)[C@@H]1O (mixture of isomers) [Example 195, rac-(2-(((2R,3S,4R,5R)-5-(6-chloro-4-(cyclopentylamino)-1H-pyrazolo[3,4-d]pyrimidin-1-yl)-3,4-dihydroxytetrahydrofuran-2-yl)methoxy)-1-hydroxy-3-(3-hydroxyisoxazol-5-yl)propan-2-yl)phosphonic acid]
≤ 100 nM	O=P(O)(O)[C@](CO)(COCC1CC1)OC[C@H]1O[C@@H](n2ncc3c(NC4CCCC4)nc(Cl)nc32)[C@H](O)[C@@H]1O (racemic) [Example 170, rac-((R)-2-(((2R,3S,4R,5R)-5-(6-chloro-4-(cyclopentylamino)-1H-pyrazolo[3,4-d]pyrimidin-1-yl)-3,4-dihydroxytetrahydrofuran-2-yl)methoxy)-1-(cyclopropylmethoxy)-3-hydroxypropan-2-yl)phosphonic acid]
≤ 100 nM	COCC(C)(OC[C@H]1O[C@@H](n2ncc3c(NCC4CC4)nc(Cl)nc32)[C@H](O)[C@@H]1O)P(=O)(O)O (stereo partly drawn) [Example 79, (2-(((2R,3S,4R,5R)-5-(6-chloro-4-((cyclopropylmethyl)amino)-1H-pyrazolo[3,4-d]pyrimidin-1-yl)-3,4-dihydroxytetrahydrofuran-2-yl)methoxy)-1-methoxypropan-2-yl)phosphonic acid]
≤ 100 nM	C[C@H](O)[C@@H](OC[C@H]1O[C@@H](n2ncc3c(NC4CCCC4)nc(Cl)nc32)[C@H](O)[C@@H]1O)P(=O)(O)O [Example 11, ((1S,2S)-1-(((2R,3S,4R,5R)-5-(6-chloro-4-(cyclopentylamino)-1H-pyrazolo[3,4-d]pyrimidin-1-yl)-3,4-dihydroxytetrahydrofuran-2-yl)methoxy)-2-hydroxypropyl)phosphonic acid]
≤ 100 nM	O=C(O)C(OC[C@H]1O[C@@H](n2ncc3c(NC4CCCC4)nc(Cl)nc32)[C@H](O)[C@@H]1O)P(=O)(O)O (stereo partly drawn) [Example 28, 2-(((2R,3S,4R,5R)-5-(6-chloro-4-(cyclopentylamino)-1H-pyrazolo[3,4-d]pyrimidin-1-yl)-3,4-dihydroxytetrahydrofuran-2-yl)methoxy)-2-phosphonoacetic acid]
≤ 100 nM	O=P(O)(O)C(CO)(CO)OC[C@H]1O[C@@H](n2ncc3c(N[C@@H]4CC[C@H]5CCC[C@H]54)nc(Cl)nc32)[C@H](O)[C@@H]1O (racemic) [Example 164, rac-(2-(((2R,3S,4R,5R)-5-(6-chloro-4-(((1R,3aR,6aR)-octahydropentalen-1-yl)amino)-1H-pyrazolo[3,4-d]pyrimidin-1-yl)-3,4-dihydroxytetrahydrofuran-2-yl)methoxy)-1,3-dihydroxypropan-2-yl)phosphonic acid]
≤ 100 nM	O=P(O)(O)C(CO)(CC1COC1)OC[C@H]1O[C@@H](n2ncc3c(NC4CCCC4)nc(Cl)nc32)[C@H](O)[C@@H]1O (mixture of isomers) [Example 167, rac-(2-(((2R,3S,4R,5R)-5-(6-chloro-4-(cyclopentylamino)-1H-pyrazolo[3,4-d]pyrimidin-1-yl)-3,4-dihydroxytetrahydrofuran-2-yl)methoxy)-1-hydroxy-3-(oxetan-3-yl)propan-2-yl)phosphonic acid]
≤ 100 nM	O=P(O)(O)CS(=O)(=O)C[C@H]1O[C@@H](n2nnc3c(N[C@@H]4CCc5ccccc54)cc(Cl)nc32)[C@H](O)[C@@H]1O [Example 83]
≤ 100 nM	O=P(O)(O)[C@@](CO)(COCc1ccccc1)OC[C@H]1O[C@@H](n2ncc3c(NC4CCCC4)nc(Cl)nc32)[C@H](O)[C@@H]1O (racemic) [Example 180, rac-((R)-1-(benzyloxy)-2-(((2S,3R,4S,5S)-5-(6-chloro-4-(cyclopentyalmino)-1H-pyrazolo[3,4-d]pyrimidin-1-yl)-3,4-dihydroxytetrahydrofuran-2-yl)methoxy)-3-hydroxypropan-2-yl)phosphonic acid]
≤ 100 nM	O=P(O)(O)C(CO)(CO)OC[C@H]1O[C@@H](n2ncc3c(NCC4CC4)nc(CO)nc32)[C@H](O)[C@@H]1O (racemic) [Example 202, rac-(2-(((2R,3S,4R,5R)-5-(4-((cyclopropylmethyl)amino)-6-(hydroxymethyl)-1H-pyrazolo[3,4-d]pyrimidin-1-yl)-3,4-dihydroxytetrahydrofuran-2-yl)methoxy)-1,3-dihydroxypropan-2-yl)phosphonic acid]
100 to 1000 nM	CS(=O)(=O)C(OC[C@H]1O[C@@H](n2ncc3c(NC4CCCC4)nc(Cl)nc32)[C@H](O)[C@@H]1O)P(=O)(O)O (stereo partly drawn) [Example 38, ((((2R,3S,4R,5R)-5-(6-chloro-4-(cyclopentylamino)-1H-pyrazolo[3,4-d]pyrimidin-1-yl)-3,4-dihydroxytetrahydrofuran-2-yl)methoxy)(methylsulfonyl)methyl)phosphonic acid]
≤ 100 nM	C[C@@](CO)(OC[C@H]1O[C@@H](n2ncc3c(NC4CCC4)nc(Cl)nc32)[C@H](O)[C@@H]1O)P(=O)(O)O [Example 101, ((R)-2-(((2R,3S,4R,5R)-5-(6-chloro-4-(cyclobutylamino)-1H-pyrazolo[3,4-d]pyrimidin-1-yl)-3,4-dihydroxytetrahydrofuran-2-yl)methoxy)-1-hydroxypropan-2-yl)phosphonic acid]
≤ 100 nM	O=P(O)(O)CS(=O)(=O)C[C@H]1O[C@@H](n2nnc3c(NC4CCCC4)cc(Cl)nc32)[C@H](O)[C@@H]1O [Example 16, (((((2S,3S,4R,5R)-5-(5-Chloro-7-(cyclopentylamino)-3H-[1,2,3]triazolo[4,5-b]pyridin-3-yl)-3,4-dihydroxytetrahydrofuran-2-yl)methyl)sulfonyl)methyl)phosphonic acid]
